Publication PMC7889660, “Complex precursor structures of cytolytic cupiennins identified in spider venom gland transcriptomes” (Scientific Reports, 2021)
Read-outs that look alike come from different tables or passages of the source. Ends that are not written are not given here.

What was measured:
[1] = test system: Drosophila melanogaster; experiment: Insecticidal bioassay with Drosophila flies, lethal dose (LD50) 24 h after injection; format: in vivo; details: for LD50: synthetic C-terminally amidated peptide in 0.1 M ammonium acetate pH 6.1, 0.05 µl injected intrathoracically into flight muscles of female flies (1- to 7-days old), 50% of flies die after 24 h, minimum five doses, each n = 20, PRISM Vers. 6.07
Protocol: The insecticidal activity of different cupiennins was investigated in a bioassay with Drosophila melanogaster and the lethal dose, where 50% of the insects die of intoxication after 24 h of injection, calculated. […] The shorter LPs such as Cu 3a, d, and Cu 4a, were with 12.4–38.5 pmol/mg fly less toxic.
Cupiennins 3a, 3b, 4a, 6a, 6b, 6d, 7b, 8, and the two-chain CsTx-16a1b1, and CsTx-16c1d1 were synthesized (all C-terminally amidated) by GeneCust, (Dulange, Luxembourg). Bioassays using Drosophila flies were performed as described elsewhere. Briefly, all peptides were dissolved in 0.1 M ammonium acetate, pH 6.1 and 0.05 µl injected intrathoracically into the flight muscles of female flies (1- to 7-days old). For each peptide, in minimum five different peptide doses were injection into the flies (each n = 20) and also a negative control with only buffer was injected (n = 10). Calculations of the lethal dose (LD50) were done with GraphPad PRISM Vers. 6.07 (GraphPad Software, San Diego, CA, USA).

[2] = test system: Drosophila melanogaster; details: Drosophila flies, 0.05 µl injected, 50% of flies die after 24 h; cited from earlier work
Protocol: Table 3 Insecticidal activities of selected cupiennins, CsTx-16 variants, neurotoxins CsTx-1, CsTx-9, and CsTx-13, and cyto-insectotoxin CIT1a. Different concentrations of peptides were dissolved in 0.1 M ammonium acetate, pH 6.1, and 0.05 µl was injected into Drosophila flies. The lethal dose (LD50, pmol/mg fly), where 50% of the flies die after 24 h, was calculated with PRISM Vers. 6.07. * Data | column: LD50 / (pmol/mg fly)

Substance | Toxicity ranking among tested cupiennins ([1]; Drosophila, LD50 after 24 h) | LD50 [1] [pmol/mg fly] | LD50 [2] [pmol/mg fly]
Cu 8: Cu 8 family linear peptide of 20 residues, transcript B, synthesized by GeneCust (IWRMPKKVLKLLAAFRGKEG-NH2) | lowest toxicity | 159.7 | –
Cu 6d: Cu 6 family linear peptide, synthesized by GeneCust (FINTIKLLIEKYREWKNKQSSG-NH2) | – | 23.2 | –
Cu 1b: cytolytic linear cationic peptide, Cu 1 family, transcript C1 (GFGSLFKFLAKKVAKTVAKQAAKQGAKYIANKQMEG-NH2) | – | – | 4.7
Cu 3a: Cu 3 family linear peptide, synthesized by GeneCust (GFGSLFKFLGKKLLKTVAKQAAKKQMEG-NH2) | – | 18.7 | –
